Measurements as given in patent publication US20240150370A1, “BICYCLIC PYRIDINE DERIVATIVE” (Sumitomo Pharma Co., Ltd., priority 0001, published 2024).
Where a name gives a salt, the structure may show the parent alone.

Assays:
hERG channel = hERG channel (Homo sapiens (Human), UniProt Q12809); experiment: Evaluation of hERG channel inhibitory activity (whole-cell patch clamp, hERG-CHO cells); assay type: cell-based; settings: autopatch clamp, read-out: hERG inhibition IC50
human TAAR1 receptor = human TAAR1 receptor (Homo sapiens (Human), UniProt Q96RJ0); experiment: Evaluation of agonist activity on human TAAR1 receptor (cAMP assay); assay type: cell-based; settings: cAMP in human TAAR1-expressing CHO cells, relative to 100 μM tyramine; for activation at 0.1 µM / activation at 1 µM / activation at 10 µM: CHO, 0.5 h, read-out: TAAR1 agonist activity at each concentration (%); for TAAR1 agonist activity at each concentration (%): dihydrochloride
Experimental: TAAR1 is a G protein-coupled receptor that binds to G proteins (Gas), and activation of the TAAR1 receptor by agonists induces an increase in intracellular cAMP levels. Therefore, the agonist activity of the sample on the human TAAR1 receptor was evaluated using the cAMP assay method.
cAMP Hunter™ CHO-K1 TAAR1 Gs Cell Line, a cell expressing human TAAR1 receptor, was purchased. Human TAAR1-expressing CHO cells were seeded in a 96-well plate, and after culturing for 24 hours, a sample dissolved in DMSO was added and incubated at 37° C. for 30 minutes. A sample for cAMP measurement was prepared according to the cAMPHiRange kit protocol. The amount of cAMP produced by the sample was measured by time-resolved fluorescence using EnVision (excitation wavelength: 330 nm, fluorescence wavelength […]/665 nm).
Sample %=100×{(Csamp)−(Cblank)}/{(Ctyramine)−(Cblank)} • Csamp: count of sample, Ctyramine: count of 100 μM tyramine, Cblank: count of blank

Chain of hERG channel (Q12809 whole entry, the tested form may be a part): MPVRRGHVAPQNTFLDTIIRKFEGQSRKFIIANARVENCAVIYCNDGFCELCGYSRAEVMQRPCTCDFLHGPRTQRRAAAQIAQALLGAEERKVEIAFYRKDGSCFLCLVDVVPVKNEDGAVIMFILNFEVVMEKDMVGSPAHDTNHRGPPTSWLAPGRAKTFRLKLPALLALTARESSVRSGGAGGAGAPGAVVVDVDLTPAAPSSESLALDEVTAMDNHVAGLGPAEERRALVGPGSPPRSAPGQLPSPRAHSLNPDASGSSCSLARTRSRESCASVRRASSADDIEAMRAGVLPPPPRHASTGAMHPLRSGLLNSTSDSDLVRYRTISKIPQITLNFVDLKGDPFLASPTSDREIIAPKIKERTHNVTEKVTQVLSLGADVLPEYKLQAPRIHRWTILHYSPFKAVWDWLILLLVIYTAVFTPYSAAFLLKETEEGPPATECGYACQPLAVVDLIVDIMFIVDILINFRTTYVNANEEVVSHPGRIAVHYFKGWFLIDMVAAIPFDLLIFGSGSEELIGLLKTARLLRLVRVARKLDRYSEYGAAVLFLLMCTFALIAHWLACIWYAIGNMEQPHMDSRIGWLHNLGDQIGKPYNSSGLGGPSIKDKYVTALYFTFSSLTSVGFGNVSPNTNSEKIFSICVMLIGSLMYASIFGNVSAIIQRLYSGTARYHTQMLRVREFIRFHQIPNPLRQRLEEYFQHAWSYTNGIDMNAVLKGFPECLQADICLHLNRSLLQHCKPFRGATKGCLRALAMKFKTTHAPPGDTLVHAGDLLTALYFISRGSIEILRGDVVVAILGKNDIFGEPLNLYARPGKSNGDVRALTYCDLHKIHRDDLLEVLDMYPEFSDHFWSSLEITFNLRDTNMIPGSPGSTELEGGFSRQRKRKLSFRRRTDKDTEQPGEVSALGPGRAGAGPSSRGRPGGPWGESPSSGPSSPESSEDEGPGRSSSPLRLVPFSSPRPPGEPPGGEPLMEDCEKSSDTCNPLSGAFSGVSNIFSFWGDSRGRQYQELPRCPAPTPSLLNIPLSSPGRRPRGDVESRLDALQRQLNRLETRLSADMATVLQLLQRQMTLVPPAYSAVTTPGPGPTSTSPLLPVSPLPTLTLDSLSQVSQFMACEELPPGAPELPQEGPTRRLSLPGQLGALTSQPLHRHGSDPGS
Chain of human TAAR1 receptor (Q96RJ0 whole entry, the tested form may be a part): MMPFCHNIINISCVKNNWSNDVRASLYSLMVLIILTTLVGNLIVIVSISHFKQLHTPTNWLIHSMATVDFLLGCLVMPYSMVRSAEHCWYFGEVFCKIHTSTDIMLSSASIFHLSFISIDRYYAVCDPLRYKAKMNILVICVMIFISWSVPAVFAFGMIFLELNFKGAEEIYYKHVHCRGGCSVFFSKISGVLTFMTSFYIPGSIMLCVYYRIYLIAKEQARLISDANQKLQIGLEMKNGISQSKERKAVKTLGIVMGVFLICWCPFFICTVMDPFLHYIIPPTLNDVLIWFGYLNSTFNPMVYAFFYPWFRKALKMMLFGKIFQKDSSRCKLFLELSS

activation at 0.1 µM (human TAAR1 receptor; 100 nM)	activation at 1 µM (human TAAR1 receptor; 1000 nM)	activation at 10 µM (human TAAR1 receptor; 10000 nM)	TAAR1 agonist activity at each concentration (%) (human TAAR1 receptor; 100 nM)	TAAR1 agonist activity at each concentration (%) (human TAAR1 receptor; 1000 nM)	TAAR1 agonist activity at each concentration (%) (human TAAR1 receptor; 10000 nM)	SMILES	IC50 (hERG channel)
11%	56%	84%				CC[C@H]1Oc2cccnc2[C@@H]1CN (stereo in doubt) [Example 22]	> 100 µM
13%	48%	79%				CC[C@@H]1Oc2cccnc2[C@H]1CN (stereo in doubt) [Example 44, rel-1-[(2S,3R)-2-ethyl-2,3-dihydrofuro[3,2-b]pyridin-3-yl]methanamine dihydrochloride]	> 100 µM
			24%	68%	90%	CNC[C@@H]1C[C@@H](C)Oc2cccnc21 [Example 5, N-methyl-1-[(2R,4S)-2-methyl-3,4-dihydro-2H-pyrano[3,2-b]pyridin-4-yl]methanamine dihydrochloride]	> 100 µM
16%	57%	75%				CNC[C@@H]1C[C@H](C)Oc2cccnc21 [Example 6]	> 100 µM
24%	63%	75%				C[C@H]1Oc2cc(F)cnc2[C@@H]1CN [Example 8, 1-[(2R,3S)-6-fluoro-2-methyl-2,3-dihydrofuro[3,2-b]pyridin-3-yl]methanamine dihydrochloride]	> 100 µM
15%	53%	70%				NCC1CCSc2cccnc21 (centres unmarked) [Example 9]	> 100 µM
10%	48%	83%				Cc1ccnc2c1O[C@H](C)[C@H]2CN [Example 34, 1-[(2R,3S)-2,7-dimethyl-2,3-dihydrofuro[3,2-b]pyridin-3-yl]methanamine dihydrochloride]	> 100 µM
57%	82%	87%				Cc1ccc2c(n1)[C@H](CN)[C@@H](C)O2 [Example 35, 1-[(2R,3S)-2,5-dimethyl-2,3-dihydrofuro[3,2-b]pyridin-3-yl]methanamine]	> 100 µM
31%	70%	80%				CNC[C@H]1c2ncccc2O[C@@H]1C [Example 46, N-methyl-1-[(2R,3S)-2-methyl-2,3-dihydrofuro[3,2-b]pyridin-3-yl]methanamine dihydrochloride]	> 100 µM
13%	52%	84%				CNC[C@@H]1C[C@@H](C)Oc2ccc(C)nc21 [Example 47]	> 100 µM
12%	45%	63%				CNC[C@H]1c2ncc(Cl)cc2O[C@@H]1C [Example 50]	> 100 µM
59%	91%	99%				Cc1ccc2c(n1)C(CN)C(C)(C)O2 (centres unmarked) [Example 83]	> 100 µM
15%	51%	79%				Cc1cc(C)c2c(n1)[C@H](CN)[C@@H](C)O2 [Example 84]	> 100 µM

More lines, now with the values behind:

SMILES	activation at 0.1 µM (human TAAR1 receptor; 100 nM)	activation at 1 µM (human TAAR1 receptor; 1000 nM)	activation at 10 µM (human TAAR1 receptor; 10000 nM)	TAAR1 agonist activity at each concentration (%) (human TAAR1 receptor; 100 nM)	TAAR1 agonist activity at each concentration (%) (human TAAR1 receptor; 1000 nM)	TAAR1 agonist activity at each concentration (%) (human TAAR1 receptor; 10000 nM)	IC50 (hERG channel)
Cc1ccc2c(n1)C(CN)CS2 (centres unmarked) [Example 11]	20%	58%	79%				> 100 µM
Cc1ccc2c(n1)C(CN)CCS2 (centres unmarked) [Example 12]	21%	58%	75%				> 100 µM
Cc1ccc2c(n1)[C@H](CN)C[C@@H](C)O2 [Example 18]	29%	73%	87%				> 100 µM
CC1(C)Oc2cccnc2C1CN (centres unmarked) [Example 23]	35%	74%	91%				> 100 µM
C[C@H]1Oc2cccnc2[C@@H]1CN [Example 27, 1-[(2R,3S)-2-methyl-2,3-dihydrofuro[3,2-b]pyridin-3-yl]methanamine dihydrochloride]	40%	81%	95%				> 100 µM
C[C@H]1Oc2ccc(F)nc2[C@@H]1CN [Example 29]	51%	93%	104%				> 100 µM
C[C@H]1Oc2cc(Cl)cnc2[C@@H]1CN [Example 37, 1-[(2R,3S)-6-chloro-2-methyl-2,3-dihydrofuro[3,2-b]pyridin-3-yl]methanamine dihydrochloride]		49%	72%	13%			> 100 µM
C[C@H]1Oc2ccc(Cl)nc2[C@@H]1CN [Example 38, 1-[(2R,3S)-5-chloro-2-methyl-2,3-dihydrofuro[3,2-b]pyridin-3-yl]methanamine dihydrochloride]	52%	86%	93%				> 100 µM
CNC[C@H]1c2nc(C)ccc2O[C@@H]1C [Example 48]	38%	74%	86%				> 100 µM
CNC[C@H]1c2ncc(F)cc2O[C@@H]1C [Example 49, 1-[(2R,3S)-6-fluoro-2-methyl-2,3-dihydrofuro[3,2-b]pyridin-3-yl]-N-methylmethanamine dihydrobromide]	25%	63%	75%				> 100 µM
CNC[C@H]1c2nccc(C)c2O[C@@H]1C [Example 51]	10%	46%	77%				> 100 µM
NCC1c2ncccc2OC12CC2 (centres unmarked) [Example 58]	36%	74%	82%				> 100 µM
CNCC1c2nc(C)ccc2OC1(C)C (centres unmarked) [Example 79]	36%	77%	90%				> 100 µM
